Assay results from patent publication US6632829B2, “Sulfonamides and derivatives thereof that modulate the activity of endothelin” (Texas Biotechnology Corp., priority 1996, dated 2003).

Legend:
human ETA receptors = target: T1, human ETA receptors (Homo sapiens, UniProt P25101); assay: Endothelin binding inhibition, Binding Test #1: competition with 125I-ET-1 for ETA receptors on TE 671 cell membranes
T1 construct: endogenous in cells; host or cells: TE 671 cells (ATCC HTB 139), membrane preparation
T1 sequence (P25101 21-427): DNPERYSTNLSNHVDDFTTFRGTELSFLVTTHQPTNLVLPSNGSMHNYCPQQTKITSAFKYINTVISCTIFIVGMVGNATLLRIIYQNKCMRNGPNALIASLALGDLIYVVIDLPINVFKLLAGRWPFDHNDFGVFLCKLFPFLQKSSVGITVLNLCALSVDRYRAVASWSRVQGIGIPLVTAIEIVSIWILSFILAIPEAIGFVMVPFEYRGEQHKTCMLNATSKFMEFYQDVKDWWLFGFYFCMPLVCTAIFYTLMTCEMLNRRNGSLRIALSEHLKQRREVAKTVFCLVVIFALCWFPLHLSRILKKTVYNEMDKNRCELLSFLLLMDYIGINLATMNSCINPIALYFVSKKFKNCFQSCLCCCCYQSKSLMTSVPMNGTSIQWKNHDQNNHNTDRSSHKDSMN

human ETB receptor = target: T2, human ETB receptor (Homo sapiens, UniProt P24530); assay: Endothelin binding inhibition, Binding Test #2: competition with 125I-ET-1 for ETB receptors on transfected COS7 cell membranes
T2 construct: expressed in transfected cells; host or cells: COS7 cells
T2 sequence (P24530 27-442): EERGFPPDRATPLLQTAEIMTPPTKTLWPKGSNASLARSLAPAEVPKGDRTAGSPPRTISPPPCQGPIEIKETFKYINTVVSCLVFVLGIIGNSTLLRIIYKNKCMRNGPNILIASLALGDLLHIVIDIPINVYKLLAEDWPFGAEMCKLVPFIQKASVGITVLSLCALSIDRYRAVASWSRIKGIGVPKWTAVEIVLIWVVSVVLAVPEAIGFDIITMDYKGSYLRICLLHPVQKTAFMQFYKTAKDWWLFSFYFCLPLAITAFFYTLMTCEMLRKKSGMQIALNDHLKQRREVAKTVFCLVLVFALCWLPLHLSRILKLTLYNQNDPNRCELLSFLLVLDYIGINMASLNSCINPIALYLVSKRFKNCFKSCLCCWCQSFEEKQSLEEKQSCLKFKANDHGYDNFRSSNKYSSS
In short: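 Membranes from COS7 cells transfected with human ETB receptor, prepared in HEPES pH 7.4 with aprotinin, MnCl2/DNase treatment at 37° C for 30 min. Test compounds compete with 125I-labeled ET-1 for receptor binding; membrane used at 1 μg/50 μL binding buffer.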

[1] = incubation at 4° C. (values without †)
[2] = incubation at 24° C. (values marked †)

Q: Which results are given for Cc1noc(NS(=O)(=O)c2c(Cc3ccc(N(C)C)cc3)sc3ccccc23)c1Cl [N-(4-chloro-3-methyl-5-isoxazolyl)-2-(4-dimethylaminobenzyl)benzo[b]thiophene-3-sulfonamide]?
A: IC50 (human ETA receptors; [1]): 0.014 µM; IC50 (human ETA receptors; [2]): 0.041 µM; IC50 (human ETB receptor; [1]): 0.477 µM; IC50 (human ETB receptor; [2]): 1.3 µM

Q: For Cc1noc(NS(=O)(=O)c2ccsc2C(=O)Oc2ccccc2)c1Cl [N-(4-chloro-3-methyl-5-isoxazolyl)-2-(phenoxycarbonyl)thiophene-3-sulfonamide], which IC50 (human ETA receptors; [2]) is on record?
A: 4.41 µM

Q: What about the inhibition at 100 µM (human ETB receptor; read-out: ETB % inhibition @ 100 μM, @ 100 μM, incubation at 24° C.) of the same compound?
A: 31%

Q: Which results are given for Cc1noc(NS(=O)(=O)c2c(-c3ccccc3C#N)sc3ccccc23)c1Cl [N-(4-chloro-3-methyl-5-isoxazolyl)-2-[2-(cyano)phenyl]benzo[b]thiophene-3-sulfonamide]?
A: IC50 (human ETA receptors; [2]): 6.33 µM; IC50 (human ETB receptor; [2]): 8.82 µM

Q: With Cc1noc(NS(=O)(=O)c2ccsc2C(=O)Cc2cc3c(cc2C#N)OCO3)c1Cl [N-(4-chloro-3-methyl-5-isoxazolyl)-2-[2-cyano-4,5-(methylenedioxy)phenylacetyl]thiophene-3-sulfonamide] as the compound, how does the IC50 (human ETA receptors; [2]) read?
A: ~0.3 µM

Q: What about the IC50 (human ETB receptor; [2]) of the same compound?
A: ~0.7 µM

Q: Which IC50 (human ETA receptors; [2]) does the source give for Cc1noc(NS(=O)(=O)c2ccsc2C(=O)Nc2c(CC#N)cc3c(c2CC#N)OCO3)c1Cl [N-(4-chloro-3-methyl-5-isoxazolyl)-2-[2-cyanomethyl-4,5-(methylenedioxy)-6-cyanomethyl]phenylaminocarbonylthiophene-3-sulfonamide] here?
A: 0.0038 µM

Q: And the IC50 (human ETB receptor; [2])?
A: 25 µM

Q: With Cc1noc(NS(=O)(=O)c2ccsc2C(=O)Nc2cc3c(cc2CNS(C)(=O)=O)OCO3)c1Cl [N-(4-chloro-3-methyl-5-isoxazolyl)-2-[2-methanesulfonylaminomethyl)-4,5-(methylenedioxy)phenylaminocarbonyl]thiophene-3-sulfonamide] as the compound, how does the IC50 (human ETA receptors; [2]) read?
A: 0.0068 µM

Q: And the IC50 (human ETB receptor; [2])?
A: 19.8 µM

Q: Which results are given for Cc1cc2c(cc1NC(=O)c1sccc1S(=O)(=O)Nc1onc(C)c1Cl)OCO2 [N-(4-chloro-3-methyl-5-isoxazolyl)-2-[2-methyl-4,5-(methylenedioxy)phenylaminocarbonyl]thiophene-3-sulfonamide]?
A: IC50 (human ETA receptors; [2]): 0.003 µM; IC50 (human ETB receptor; [2]): 355 µM

Q: CC(=O)OCCOc1cc2c(cc1NC(=O)c1sccc1S(=O)(=O)Nc1onc(C)c1Cl)OCO2 [N-(4-chloro-3-methyl-5-isoxazolyl)-2-[3,4-(methylenedioxy)-6-(2-acetoxyethoxy)]phenylaminocarbonyl]thiophene-3-sulfonamide] was tested. Which IC50 (human ETA receptors; [2]) did it give?
A: ~0.02 µM

Q: What about the IC50 (human ETB receptor; [2]) of the same compound?
A: ~18 µM

Q: Which results are given for CC(=O)OCCc1cc2c(cc1NC(=O)c1sccc1S(=O)(=O)Nc1onc(C)c1Cl)OCO2 [N-(4-chloro-3-methyl-5-isoxazolyl)-2-[3,4-(methylenedioxy)-6-(2-acetoxyethyl)phenylaminocarbonyl]thiophene-3-sulfonamide]?
A: IC50 (human ETA receptors; [2]): 0.0045 µM; IC50 (human ETB receptor; [2]): 25.7 µM

Q: For Cc1noc(NS(=O)(=O)c2ccsc2C(=O)Nc2cc3c(cc2OCCO)OCO3)c1Cl [N-(4-chloro-3-methyl-5-isoxazolyl)-2-[3,4-(methylenedioxy)-6-(2-hydroxyethoxy)phenylaminocarbonyl]thiophene-3-sulfonamide], which IC50 (human ETA receptors; [2]) is on record?
A: ~0.01 µM

Q: What about the IC50 (human ETB receptor; [2]) of the same compound?
A: ~18 µM

Q: What does the source list for Cc1noc(NS(=O)(=O)c2ccsc2C(=O)Nc2cc3c(cc2CCO)OCO3)c1Cl [N-(4-chloro-3-methyl-5-isoxazolyl)-2-[3,4-(methylenedioxy)-6-(2-hydroxyethyl)phenylaminocarbonyl]thiophene-3-sulfonamide]?
A: IC50 (human ETA receptors; [2]): 0.0056 µM; IC50 (human ETB receptor; [2]): 16.8 µM

Q: Cc1noc(NS(=O)(=O)c2ccsc2C(=O)Nc2ccc3c(c2)OCO3)c1Cl [N-(4-chloro-3-methyl-5-isoxazolyl)-2-[3,4-(methylenedioxy)]phenylaminocarbonyl-3-thiophenesulfonamide] was tested. Which IC50 (human ETA receptors; [2]) did it give?
A: 0.0073 µM

Q: What about the IC50 (human ETB receptor; [2]) of the same compound?
A: 9.2 µM

Q: What does the source list for Cc1noc(NS(=O)(=O)c2ccsc2C(=O)OCc2ccc3c(c2)OCO3)c1Cl [N-(4-chloro-3-methyl-5-isoxazolyl)-2-[3,4-(methylenedioxy)benzyloxycarbonyl]thiophene-3-sulfonamide]?
A: IC50 (human ETA receptors; [2]): 0.42 µM; IC50 (human ETB receptor; [2]): 12 µM
